ChEMBL document CHEMBL1129813, “Synthesis and cell growth inhibitory properties of substituted (E)-1-phenylbut-1-en-3-ones” (Bioorg Med Chem Lett, 1997)

tested on: K562; assay: In vitro cell growth inhibitory activity against K562 human chronic myelogenous leukemia cell line; assay type: functional, cell-based

Row | IC50 [µM] | Compound
1 | 7.5 | CC(=O)/C=C/c1ccc(C)cc1
2 | 20 | CC(=O)/C=C/C=C/c1ccccc1
3 | 30 | COc1ccc(/C=C/C(C)=O)c(OC)c1
4 | 2.6 | CC(=O)/C=C/c1ccc([N+](=O)[O-])cc1
5 | 3.3 | CC(=O)/C=C/c1ccc(C(F)(F)F)cc1
6 | 90 | CC(=O)/C=C/c1ccc(N(C)C)cc1
7 | 9.9 | COc1cccc(/C=C/C(C)=O)c1O
8 | 5.6 | CC(=O)/C=C/c1ccc(Br)cc1
9 | 7.4 | CC(=O)/C=C/c1ccc(Br)cc1F
10 | 68 | COc1cc(/C=C/C(C)=O)ccc1O [DEHYDROZINGERONE]
11 | 34 | COc1ccc(/C=C/C(C)=O)cc1OC
12 | 68 | COc1cc(N(C)C)ccc1/C=C/C(C)=O
13 | > 100 | CC(=O)CCc1ccc(O)cc1 [RASPBERRYKETONE]
14 | 42 | COc1ccc(/C=C/C(C)=O)cc1O
15 | 7.9 | CC(=O)/C=C/c1ccc(Cl)cc1Cl
16 | 20 | CC(=O)/C=C/c1cccs1
17 | 21 | CC(=O)/C=C/c1ccc(C(C)C)cc1
18 | > 100 | CC(O)CCc1ccc(O)cc1 (configuration not stated)

Row | IC50 [µM] | Compound
19 | 2.9 | CC(=O)/C=C/c1ccc(F)c(Br)c1
20 | 9.3 | COc1cc(OC)c(/C=C/C(C)=O)c(OC)c1
21 | 79 | COc1ccc(/C=C/C(C)=O)cc1
22 | 5.3 | CC(=O)/C=C/c1cc(Br)ccc1F
23 | 60 | CC(=O)/C=C/c1ccc(O)cc1
24 | 10.3 | CC(=O)/C=C/c1ccc(OCc2ccccc2)cc1
25 | 56 | COc1cc(/C=C/C(C)=O)cc(OC)c1O
26 | 17 | COc1cc(/C=C/C(C)=O)cc(OC)c1OC
27 | 8.4 | CC(=O)/C=C/c1ccc(OCc2ccccc2)c(OCc2ccccc2)c1
28 | 15 | CSc1ccc(/C=C/C(C)=O)cc1
29 | 6.1 | CC(=O)/C=C/c1ccc(F)cc1
30 | 2.6 | CC(=O)/C=C/c1cccc([N+](=O)[O-])c1
31 | 1.9 | CC(=O)/C=C/c1c(F)c(F)c(F)c(F)c1F
32 | 5.8 | COc1cc(/C=C/C(C)=O)cc(OC)c1
33 | > 100 | CC(=O)/C=C/c1ccco1
34 | 7.6 | CC(=O)/C=C/c1ccc2ccccc2c1
35 | 3.5 | CC(=O)/C=C/c1cccc(C(F)(F)F)c1

Row | Compound | IC50 [µM]
36 | CC(=O)/C=C/c1ccc2c(c1)OCO2 | 12
37 | CC(=O)/C=C/c1ccc(Cl)cc1 | 8.3
